Laboratory results as given in patent publication US6509002B1, “Diagnostic agent for diabetes” (priority 1997, dated 2003).
One block for each molecule: values may come before it.

What was measured:
[1] = ^13C breath test, oral administration, diabetic vs normal rats; format: in vivo, rat; conditions: for slope from 20 to 30 min after the administration / Δ^13C value (‰) at 30 min after the administration: 300 mg/kg orally, Example 6; for slope from 12 to 17 min after the administration: 90 mg/kg orally, Example 38
Method: As test animals, male Sprague-Dawley strain (SD) neonatal rats were purchased from Nippon Charles River K. K. together with their lactating rats. They were bred at 23±2° C. under 55±10% humidity before use. Insulin secretion-deficient type diabetes was generated by administering streptozotocin (STZ) to neonatal rats (“Saibokogaku (Cell Engineering)”, Extra Issue, medical Experiment Manual Series, Strategy for Study of Diabetes, edited by Susumu Seino and Yoshikazu Oka, published by Shujunsha Co., Japan). STZ was subcutaneously administered to 2-day-old rats at a dose of 90 mg/kg. The STZ had been dissolved in a citrate buffer (pH 4.5) and was administered within 5 min after the dissolution. Two days after the administration, blood was collected by cardiac puncture, and the casual blood sugar level of each rat was measured with Terumo […] (blood sugar measurement set). […] However, their fasting blood sugar levels increase only slightly and remain at almost normal levels. According to the standards stipulated by the Japan Diabetes Society (1982), those individuals with a fasting blood sugar level (in venous whole blood) of […] or more are regarded as having diabetes (“[…] (Diabetes Test Manual)”, edited by Yukio […], published by Nanko-Do Co., Japan). Then, those rats with a fasting blood sugar level of less than 120 mg/dl (and with a casual blood sugar level of 250 mg/dl or more) which are not regarded as having diabetes in a fasting blood sugar level test were selected from the above-described rats with insulin secretion-deficient type diabetes and used as a model of light diabetes. Breath tests were carried out according to the method as described in (2)-1 or (2)-2 below on diabetic rats prepared in (1) above (8-10-week-old) and normal rats (8-10-week-old). Δ^13C (‰)=[(^13C t min-^13C 0 min)/^13C std]×1000 […] A blood sample was collected from the tail vein, and its sugar level was determined using Terumo […] (blood sugar measurement set). The exhalation was sucked with a stroke pump 18 (variable stroke pump VS-500; Shibata Scientific Technology) at a rate of 100-300 ml/min and introduced directly into a flow cell in ^13CO2 Analyzer EX-130S (Japan Spectroscopic Co., Ltd.) 20. […] Pure Drier ([…] Pure Inc.) was located between the rat holder and the stroke pump 18 to remove moisture in the exhalation (FIG. 1). […] The data output from the ^13CO2 analyzer 20 were incorporated into a personal computer 21 (Apple Power Macintosh 8500) after AD conversion. Using the data processing software Lab VIEW (National Instruments), data on ten points at every 100 msec were added up and averaged at intervals of 5 sec and then converted into ^13C atom %, Δ^13C (‰) and CO2 gas concentration (%), to thereby perform a continuous measurement ^13C breath test. […] Δ^13C (‰) was calculated by the formula described above.

[2] = ^13C breath test, intravenous administration (femoral vein), diabetic vs normal rats; format: in vivo, rat
Excerpt: As test animals, male Sprague-Dawley strain (SD) neonatal rats were purchased from Nippon Charles River K. K. together with their lactating rats. […] Insulin secretion-deficient type diabetes was generated by administering streptozotocin (STZ) to neonatal rats (“Saibokogaku (Cell Engineering)”, Extra Issue, medical Experiment Manual Series, Strategy for Study of Diabetes, edited by Susumu Seino and Yoshikazu Oka, published by Shujunsha Co., Japan). STZ was subcutaneously administered to 2-day-old rats at a dose of 90 mg/kg. […] Two days after the administration, blood was collected by cardiac puncture, and the casual blood sugar level of each rat was measured with Terumo […] (blood sugar measurement set). […] Breath tests were carried out according to the method as described in (2)-1 or (2)-2 below on diabetic rats prepared in (1) above (8-10-week-old) and normal rats (8-10-week-old). […] A blood sample was collected from the tail vein, and its sugar level was determined using Terumo […] (blood sugar measurement set). […] Fine Science Tools Inc.).

[3] = diabetic rats, 50 mg/kg orally, Example 33
[4] = normal rats, 50 mg/kg orally, Example 33
[5] = diabetic rats, 45 mg/kg orally, Example 26
[6] = normal rats, 45 mg/kg orally, Example 26
[7] = diabetic rats, 50 mg/kg from the femoral vein, Example 16
[8] = normal rats, 50 mg/kg from the femoral vein, Example 16
[9] = diabetic rats, 10 mg/kg from the femoral vein, Example 15
[10] = normal rats, 10 mg/kg from the femoral vein, Example 15
[11] = diabetic rats, 60 mg/kg orally, Example 17
[12] = normal rats, 60 mg/kg orally, Example 17
[13] = diabetic rats, 20 mg/kg from the femoral vein, Example 11
[14] = normal rats, 20 mg/kg from the femoral vein, Example 11
[15] = diabetic rats, 50 mg/kg from the femoral vein, Example 35
[16] = normal rats, 50 mg/kg from the femoral vein, Example 35
[17] = diabetic rats, 50 mg/kg from the femoral vein, Example 27
[18] = normal rats, 50 mg/kg from the femoral vein, Example 27
[19] = diabetic rats, 40 mg/kg from the femoral vein, Example 36
[20] = normal rats, 40 mg/kg from the femoral vein, Example 36
[21] = diabetic rats, 30 mg/kg orally, Example 7
[22] = normal rats, 30 mg/kg orally, Example 7

Molecule: NC(CSSCC(N)[13C](=O)O)[13C](=O)O (stereo not drawn) [1-^13C-cystine]
slope from 5 to 10 min after the administration [1, 5]: 46.82±2.94 ‰/5 min
time course of Δ^13C values (‰) [1, 5]: continued increasing up to 30 min
Δ^13C value (‰) at 10 min after the administration [1, 5]: 69.15±6.44 ‰
slope from 5 to 10 min after the administration [1, 6]: 30.86±10.06 ‰/5 min
time course of Δ^13C values (‰) [1, 6]: continued increasing up to 30 min
Δ^13C value (‰) at 10 min after the administration [1, 6]: 45.26±8.68 ‰

Molecule: N[C@@H](CO)[13C](=O)O [1-^13C-serine]
slope from 1 to 4 min after the administration [2, 7]: 158.13±41.24 ‰/3 min
time course of Δ^13C values (‰) [2, 7]: increased sharply up to about 8 min after the administration, but thereafter decreased gradually up to 20 min
Δ^13C value (‰) at 10 min after the administration [2, 7]: 228.08±43.45 ‰
slope from 1 to 4 min after the administration [2, 8]: 84.17±11.38 ‰/3 min
time course of Δ^13C values (‰) [2, 8]: increased up to about 8 min after the administration of 1-^13C-serine, and thereafter remained at an almost constant level
Δ^13C value (‰) at 10 min after the administration [2, 8]: 127.79±10.69 ‰

Molecule: N[C@@H](Cc1c[nH]c2ccccc12)[13C](=O)O [1-^13C-tryptophan]
slope from 10 to 15 min after the administration [2, 9]: 4.46±0.49 ‰/5 min
time course of Δ^13C values (‰) [2, 9]: continued increasing up to 20 min
Δ^13C value (‰) at 20 min after the administration [2, 9]: 19.42±4.37 ‰
slope from 10 to 15 min after the administration [2, 10]: 1.20±0.93 ‰/5 min
time course of Δ^13C values (‰) [2, 10]: continued increasing up to 20 min
Δ^13C value (‰) at 20 min after the administration [2, 10]: 8.10±0.77 ‰

Molecule: N[C@@H](C[13c]1ccc(O)cc1)C(=O)O [1-^13C-tyrosine]
slope from 5 to 10 min after the administration [1, 11]: 79.62±19.90 ‰/5 min
time course of Δ^13C values (‰) [1, 11]: increased up to about 20 min after the administration, but thereafter decreased gradually up to 30 min
Δ^13C value (‰) at 20 min after the administration [1, 11]: 205.30±51.43 ‰
slope from 5 to 10 min after the administration [1, 12]: 27.52±17.10 ‰/5 min
time course of Δ^13C values (‰) [1, 12]: continued increasing up to 30 min
Δ^13C value (‰) at 20 min after the administration [1, 12]: 73.96±35.10 ‰

Molecule: CC(C)[C@H](N)[13C](=O)O [1-^13C-valine]
slope from 2 to 4 min after the administration [2, 13]: 38.55±3.15 ‰/2 min
time course of Δ^13C values (‰) [2, 13]: sharply increased up to about 6 min after the administration of 1-^13C-valine, and thereafter increased gradually up to 20 min
Δ^13C value (‰) at 5 min after the administration [2, 13]: 73.54±7.30 ‰
slope from 2 to 4 min after the administration [2, 14]: 24.17±2.32 ‰/2 min
time course of Δ^13C values (‰) [2, 14]: sharply increased up to about 6 min after the administration of 1-^13C-valine, and thereafter increased gradually up to 20 min
Δ^13C value (‰) at 5 min after the administration [2, 14]: 45.99±5.62 ‰

Molecule: O=[13CH][C@H](O)[C@@H](O)[C@H](O)CO [1-^13C-xylose]
slope from 20 to 30 min after the administration ([1]; diabetic rats): 12.80±2.18 ‰/10 min
Δ^13C value (‰) at 30 min after the administration ([1]; diabetic rats): 23.40±7.60 ‰
slope from 20 to 30 min after the administration ([1]; normal rats): 4.61±1.40 ‰/10 min
Δ^13C value (‰) at 30 min after the administration ([1]; normal rats): 6.82±3.02 ‰

Molecule: O=C[13C@H](O)[C@@H](O)[C@@H](O)[C@H](O)CO [2-^13C-galactose]
time course of Δ^13C values (‰) ([2]; rat, in vivo, 100 mg/kg): continued increasing up to 20 min

Molecule: OC[13CH](O)CO [2-^13C-glycerol]
slope from 2 to 7 min after the administration [2, 15]: 62.72±3.22 ‰/5 min
time course of Δ^13C values (‰) [2, 15]: increased sharply up to about 8 min after the administration, and thereafter increased gradually up to 20 min
Δ^13C value (‰) at 20 min after the administration [2, 15]: 112.44±5.12 ‰
slope from 2 to 7 min after the administration [2, 16]: 16.99±1.61 ‰/5 min
time course of Δ^13C values (‰) [2, 16]: continued increasing gradually up to 20 min after the administration of 2-^13C-glycerol, and thereafter remained at an almost constant level
Δ^13C value (‰) at 20 min after the administration [2, 16]: 54.77±4.23 ‰

Molecule: [13CH3]C(O)C(=O)[O-].[Na+] (stereo not drawn) [3-^13C-sodium lactate]
^13C value (‰) at 10 min after the administration [2, 17]: 202.08±6.05 ‰
slope from 2 to 4 min after the administration [2, 17]: 96.83±17.69 ‰/2 min
time course of Δ^13C values (‰) [2, 17]: increased sharply up to about 7 min after the administration, but thereafter decreased gradually up to 20 min
^13C value (‰) at 10 min after the administration [2, 18]: 130.30±11.47 ‰
slope from 2 to 4 min after the administration [2, 18]: 60.69±6.80 ‰/2 min
time course of Δ^13C values (‰) [2, 18]: increased sharply up to about 5 min after the administration of 3-^13C-sodium lactate, and thereafter increased gradually up to 20 min

More lines, main results first:

time course of Δ^13C values (‰) [1, 3]: continued increasing up to 30 min
Δ^13C value (‰) at 20 min after the administration [1, 3]: 150.72±22.48 ‰
time course of Δ^13C values (‰) [1, 4]: continued increasing up to 30 min
Δ^13C value (‰) at 20 min after the administration [1, 4]: 110.16±16.08 ‰
Molecule: CCCCCCC[13C](=O)OCC(CO[13C](=O)CCCCCCC)O[13C](=O)CCCCCCC [1,1,1-^13C-trioctanoin]

Δ^13C value (‰) at 20 min after the administration ([2]; rat, in vivo): 94.68 ‰
slope from 2 to 6 min after the administration ([2]; rat, in vivo, 100 mg/kg): 21.4±1.84 ‰/4 min
Δ^13C value (‰) at 20 min after the administration ([2]; rat, in vivo, 100 mg/kg): 58.75±2.73 ‰
Molecule: O=[13C](CO)[C@@H](O)[C@H](O)[C@H](O)CO [2-^13C-fructose]

slope from 1 to 2 min after the administration [2, 19]: 95.68±16.33 ‰/min
Δ^13C value (‰) at 20 min after the administration [2, 19]: 193.62±22.21 ‰
slope from 1 to 2 min after the administration [2, 20]: 41.16±8.89 ‰/min
Δ^13C value (‰) at 20 min after the administration [2, 20]: 92.2±12.64 ‰
Molecule: Cc1c(N([13CH3])[13CH3])c(=O)n(-c2ccccc2)n1C [N,N-dimethyl-^13C-aminopyrin]
time course of Δ^13C values (‰) [2, 19]: increased sharply up to about 5 min after the administration, and thereafter remained at an almost constant level up to 20 min
time course of Δ^13C values (‰) [2, 20]: increased sharply up to about 3 min after the administration of N,N-dimethyl-^13C-aminopyrin, and thereafter increased gradually up to 20 min

^13C value (‰) at 30 min after the administration [1, 21]: 144.50±23.27 ‰
time course of Δ^13C values (‰) [1, 21]: continued increasing up to 20 min
^13C value (‰) at 30 min after the administration [1, 22]: 213.89±4.66 ‰
time course of Δ^13C values (‰) [1, 22]: continued increasing up to 20 min
Molecule: U-^13C-starch

slope from 12 to 17 min after the administration ([1]; diabetic rats): −8.40±7.67 ‰/5 min
slope from 12 to 17 min after the administration ([1]; normal rats): 16.05±7.71 ‰/5 min
Molecule: ethoxy-^13C-methacetin
